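The compound was tested at five concentrations on cells cultured in 96-well plates, with a 48-hour exposure period. GI50: concentration for 50% inhibition of growth.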 Activity calls are given as the source filed them. Rule as the data show it: active = GI50 up to about 1.1 µM and inactive = higher.
Key:
Test in all cases: inhibition of tumour cell growth, NCI panel, 48 h
[1] = system: DU-145
[2] = system: SF-539
[3] = system: EKVX
[4] = system: M14
[5] = system: UACC-62
[6] = system: NCI-H460
[7] = system: CAKI-1
[8] = system: OVCAR-5
[9] = system: NCI-H23
[10] = system: K562
[11] = system: SF-268
[12] = system: MCF7
[13] = system: HL-60
[14] = system: 786-0
[15] = system: SN12C
[16] = system: OVCAR-3
[17] = system: ACHN
[18] = system: U-251
[19] = system: HCC 2998

| Compound | GI50 [1] | GI50 [2] | GI50 [3] | GI50 [4] | GI50 [5] | GI50 [6] | GI50 [7] | GI50 [8] | GI50 [9] | GI50 [10] | GI50 [11] | GI50 [12] | GI50 [13] | GI50 [14] | GI50 [15] | GI50 [16] | GI50 [17] | GI50 [18] | GI50 [19] |
| --- | --- | --- | --- | --- | --- | --- | --- | --- | --- | --- | --- | --- | --- | --- | --- | --- | --- | --- | --- |
| CCOC(=O)c1c(NS(=O)(=O)c2ccc(C)cc2)sc2c1CCCC2 | 33.6 µM (inactive) | 29.9 µM (inactive) | 32.6 µM (inactive) | 35.8 µM (inactive) | 17.5 µM (inactive) | 24.3 µM (inactive) | 38.9 µM (inactive) | 65.3 µM (inactive) | 18.1 µM (inactive) | 20.6 µM (inactive) | 26.1 µM (inactive) | 24.4 µM (inactive) | 42.7 µM (inactive) | 35.2 µM (inactive) | 31.8 µM (inactive) | 15 µM (inactive) | 29.9 µM (inactive) |  |  |
| CCOc1cc(C=O)c2c(ccc3ccc(OC)c(OC)c32)c1OC | > 100 µM (inactive) |  | 7.1 µM (inactive) | 89.3 µM (inactive) | 67.8 µM (inactive) | 20 µM (inactive) | 93.5 µM (inactive) | > 100 µM (inactive) | 64 µM (inactive) | 14.5 µM (inactive) | > 100 µM (inactive) |  | 24.4 µM (inactive) | > 100 µM (inactive) | 70.6 µM (inactive) | 31.6 µM (inactive) | 44 µM (inactive) | 88.9 µM (inactive) | 83.8 µM (inactive) |
| C=C[C@@H](OCOCC[Si](C)(C)C)[C@@H](CC)OC(CCCOC(=O)C(C)(C)C)OC (stereo partly drawn) | 43.7 µM (inactive) |  | 25.3 µM (inactive) | 36.4 µM (inactive) | 25.1 µM (inactive) | 54.2 µM (inactive) | 53.7 µM (inactive) | 21.7 µM (inactive) | 28.3 µM (inactive) | 60.4 µM (inactive) | 33.3 µM (inactive) | 21.8 µM (inactive) | 18.4 µM (inactive) | 25 µM (inactive) | 45.3 µM (inactive) | 40.9 µM (inactive) | 36.7 µM (inactive) | 21 µM (inactive) |  |
| COC12C=CC(CC1)C1C(=O)c3c(C)c(C)n(C)c3C(=O)C12 (stereo not drawn) | > 100 µM (inactive) | > 100 µM (inactive) | > 100 µM (inactive) | > 100 µM (inactive) | 40.9 µM (inactive) | > 100 µM (inactive) |  | > 100 µM (inactive) | 99.5 µM (inactive) | > 100 µM (inactive) | > 100 µM (inactive) | > 100 µM (inactive) |  | > 100 µM (inactive) |  | > 100 µM (inactive) | 90.6 µM (inactive) | > 100 µM (inactive) |  |
| Oc1cccc(-c2cn3cc(Cl)ccc3n2)c1 | 31 µM (inactive) |  | 24.3 µM (inactive) | 49.7 µM (inactive) | 35.1 µM (inactive) | 34 µM (inactive) | 70 µM (inactive) | 72.6 µM (inactive) | 51.8 µM (inactive) | 42.1 µM (inactive) | 55.1 µM (inactive) | 17.3 µM (inactive) | 5.4 µM (inactive) | 66.2 µM (inactive) | 57.1 µM (inactive) | 31.7 µM (inactive) | 43.9 µM (inactive) | 69.2 µM (inactive) | 38.4 µM (inactive) |
| CCOC(=O)CNC(=O)CNC(=O)CNC(=O)CNNc1c(OCc2ccccc2)c(=O)c1=O | > 100 µM (inactive) |  | > 100 µM (inactive) | > 100 µM (inactive) | > 100 µM (inactive) |  | > 100 µM (inactive) | > 100 µM (inactive) | > 100 µM (inactive) | > 100 µM (inactive) | > 100 µM (inactive) | > 100 µM (inactive) |  | > 100 µM (inactive) | > 100 µM (inactive) | > 100 µM (inactive) | > 100 µM (inactive) | > 100 µM (inactive) | > 100 µM (inactive) |
| CCC(=O)/C(=C\I)c1ccccc1 | 7.19 µM (inactive) | 18.1 µM (inactive) | 19.2 µM (inactive) | 2.28 µM (inactive) | 2.49 µM (inactive) | 9.86 µM (inactive) |  | 1.84 µM (inactive) | 3.71 µM (inactive) | 0.796 µM (active) | 16.7 µM (inactive) | 1.67 µM (inactive) | 0.995 µM (active) | 1.78 µM (inactive) | 2.16 µM (inactive) | 1.67 µM (inactive) |  | 2.23 µM (inactive) |  |
| CC(SC(=S)N1CCOCC1)C(=O)Nc1nnc(-c2ccccc2)o1 (stereo not drawn) | > 100 µM (inactive) | > 100 µM (inactive) | > 100 µM (inactive) | > 100 µM (inactive) |  | > 100 µM (inactive) | > 100 µM (inactive) | > 100 µM (inactive) | > 100 µM (inactive) | 55.1 µM (inactive) |  | 60.1 µM (inactive) | 5.05 µM (inactive) | 83.2 µM (inactive) | 93.3 µM (inactive) | > 100 µM (inactive) | 97.7 µM (inactive) | > 100 µM (inactive) |  |
| Oc1ccc(O)c(Sc2nnc(CCCCCCCCc3nnc(Sc4cc(O)ccc4O)o3)o2)c1 | > 100 µM (inactive) |  | > 100 µM (inactive) | > 100 µM (inactive) | 47.5 µM (inactive) | 72.9 µM (inactive) | 28.8 µM (inactive) | 95.9 µM (inactive) | > 100 µM (inactive) | 39.8 µM (inactive) | 73.6 µM (inactive) | 33.8 µM (inactive) |  | 19 µM (inactive) | 90.6 µM (inactive) |  | 28.1 µM (inactive) | 71.6 µM (inactive) | 75.5 µM (inactive) |
| CC(C)=CCC[C@@H](C)C1=C(Nc2ccccc2)C(=O)C(C)=C(O)C1=O | 4.59 µM (inactive) |  | 3.86 µM (inactive) | 3.13 µM (inactive) | 4.03 µM (inactive) | 1.63 µM (inactive) | 2.82 µM (inactive) | 8.95 µM (inactive) | 2.82 µM (inactive) | 2.92 µM (inactive) | 1.73 µM (inactive) | 4.29 µM (inactive) | 0.303 µM (active) | 4.75 µM (inactive) | 4.19 µM (inactive) | 2.21 µM (inactive) | 2.56 µM (inactive) | 2.74 µM (inactive) | 5.92 µM (inactive) |
| COC(=O)C1(C(=O)OC)N=C(C)OC1c1ccoc1 (stereo not drawn) | > 100 µM (inactive) |  | > 100 µM (inactive) | > 100 µM (inactive) | > 100 µM (inactive) | > 100 µM (inactive) | > 100 µM (inactive) | > 100 µM (inactive) | > 100 µM (inactive) | 99.8 µM (inactive) |  | > 100 µM (inactive) | > 100 µM (inactive) | > 100 µM (inactive) | > 100 µM (inactive) | > 100 µM (inactive) | > 100 µM (inactive) | > 100 µM (inactive) | > 100 µM (inactive) |
| NNC1=NC(=O)NC(=O)C1 | > 100 µM (inactive) |  | > 100 µM (inactive) | > 100 µM (inactive) | > 100 µM (inactive) | > 100 µM (inactive) | > 100 µM (inactive) | > 100 µM (inactive) | > 100 µM (inactive) | > 100 µM (inactive) | > 100 µM (inactive) | > 100 µM (inactive) | > 100 µM (inactive) | > 100 µM (inactive) | > 100 µM (inactive) | > 100 µM (inactive) | > 100 µM (inactive) | > 100 µM (inactive) |  |
| N#Cc1c(-c2ccccc2)cc(-c2ccc(Cl)cc2)[nH]c1=S | 53.6 µM (inactive) |  | 30.4 µM (inactive) | 38.9 µM (inactive) | 27.9 µM (inactive) | 32.5 µM (inactive) | 51.4 µM (inactive) | 62.4 µM (inactive) | 4.06 µM (inactive) | 34 µM (inactive) | 41.3 µM (inactive) | 23.4 µM (inactive) | 45.6 µM (inactive) | 53.3 µM (inactive) | 39.5 µM (inactive) | 38.8 µM (inactive) | 21.5 µM (inactive) | 21.3 µM (inactive) | 31.9 µM (inactive) |
| N#CSCc1cccc(Nc2cc(=O)[nH]c(=O)[nH]2)c1 |  | 33 µM (inactive) | > 100 µM (inactive) | 52 µM (inactive) | 26.7 µM (inactive) | > 100 µM (inactive) | > 100 µM (inactive) | > 100 µM (inactive) | > 100 µM (inactive) | 30.5 µM (inactive) | 28.8 µM (inactive) | 7.23 µM (inactive) |  | > 100 µM (inactive) | > 100 µM (inactive) | 54.7 µM (inactive) | > 100 µM (inactive) | 94.4 µM (inactive) | 43.3 µM (inactive) |
| Cc1cc(C)nc(NS(=O)(=O)c2ccc(Nc3c4ccccc4nc4c(C(=O)N5CCN(CCO)CC5)ccc(Cl)c34)cc2)n1 |  | > 100 µM (inactive) |  | 34 µM (inactive) | 83 µM (inactive) | > 100 µM (inactive) | > 100 µM (inactive) | > 100 µM (inactive) | > 100 µM (inactive) | 38.5 µM (inactive) | 76.9 µM (inactive) |  | 34.4 µM (inactive) | 68.1 µM (inactive) | 94.2 µM (inactive) | > 100 µM (inactive) |  | 97.3 µM (inactive) | > 100 µM (inactive) |
| CC(=O)Nc1ncc(Sc2ccccc2C(=O)O)s1 | > 100 µM (inactive) | > 100 µM (inactive) | > 100 µM (inactive) | > 100 µM (inactive) | > 100 µM (inactive) | > 100 µM (inactive) | > 100 µM (inactive) | > 100 µM (inactive) | > 100 µM (inactive) | > 100 µM (inactive) | > 100 µM (inactive) | > 100 µM (inactive) | > 100 µM (inactive) | > 100 µM (inactive) | > 100 µM (inactive) | > 100 µM (inactive) | > 100 µM (inactive) | > 100 µM (inactive) |  |
